Assays:
[1] = Dog pharmacokinetic study; type: in vivo, dogs; conditions: for AUClast / Cmax / Tmax: healthy dogs, N = 4 animals/arm, fasted overnight, pentagastrin 30 min prior to dosing, mean plasma profile
Experimental: Healthy dogs were used to study different salt candidates to evaluate the pharmacokinetic profile of each candidate. Six treatment arms were employed:
Animals were fasted overnight with free access to water. Pentagastrin (PG) (6 μg/kg, IM) was administered 30 min prior to dosing. Food was resumed 4 h post dose.

[2] = Solubility in pharmaceutically acceptable formulation; type: physicochemical; conditions: in any pharmaceutically acceptable formulation
Source text: (§1) Initial studies identified thienopyrimidine carboxylic acids as PDE9 inhibitors which could be used to treat or prevent HF. […] In further studies, the potassium salt was identified as a candidate for formulation because it was soluble, provided high exposure in preclinical toxicology studies, and was relatively easy to scale up. […] Unexpectedly the monohydrate crystalline meglumine salt of the thienopyrimidine compounds afforded the desired properties for a pharmaceutical formulation, as shown in Table 5.

[3] = Exposure in preclinical toxicology studies; conditions: in vivo
Source text: as §1

[4] = Solid form stability on drying under vacuum; type: physicochemical; conditions: crystalline salts; crystal form after drying
Source text: as §1

[5] = Hygroscopicity by Dynamic Vapor Sorption; type: physicochemical; conditions: for Hygroscopicity: DVS weight gain: Dynamic Vapor Sorption @ 25° C./95% RH
Source text: as §1

## [K+] [Potassium]
[1]
  AUClast: 966 ng·h/mL
  Cmax: 398 ng/mL
  Tmax: 1.25 h
[2]
  Solubility (in words): soluble
[3]
  Exposure in preclinical toxicology studies (in words): high exposure
[4]
  Stability: Drying under vaccum @50 for 36 hrs: changes
[5]
  Hygroscopicity: DVS weight gain: 8-22.5%

## CNCC(O)C(O)C(O)C(O)CO.Cc1c(C(=O)O)sc2nc(Cc3ccc(Cl)c(Cl)c3)[nH]c(=O)c12.O [compound 4, meglumine 2-(3,4-dichlorobenzyl)-5-methyl-4-oxo-3,4-dihydrothieno[2,3-d]pyrimidine-6-carboxylate monohydrate]
[1]; dogs, compared with other salts
  Pharmacokinetic profile (in words): superior pharmacokinetic profile
[1]; dogs, powder in a capsule (PIC)
  Exposure compared with free acid and potassium salt dosed as solutions (in words): comparable exposure
[1]
  AUClast: 1008 ng·h/mL
  Cmax: 280 ng/mL
  Tmax: 1.13 h
[4]
  Stability: Drying under vaccum @50 for 36 hrs: unchanged
[5]
  Hygroscopicity (in words): low hygroscopicity
  Hygroscopicity: DVS weight gain: 0.7%

## Cc1c(C(=O)O)sc2nc(Cc3ccc(Cl)c(Cl)c3)[nH]c(=O)c12.N=C(N)NCCC[C@H](N)C(=O)O [compound 8, arginine 2-(3,4-dichlorobenzyl)-5-methyl-4-oxo-3,4-dihydrothieno[2,3-d]pyrimidine-6-carboxylate]
[1]
  AUClast: 705 ng·h/mL
  Cmax: 246 ng/mL
  Tmax: 1.38 h
[4]
  Stability: Drying under vaccum @50 for 36 hrs: changes
[5]
  Hygroscopicity: DVS weight gain: 5.9%

## Cc1c(C(=O)O)sc2nc(Cc3ccc(Cl)c(Cl)c3)[nH]c(=O)c12.NCCCC[C@H](N)C(=O)O [compound 9, lysine 2-(3,4-dichlorobenzyl)-5-methyl-4-oxo-3,4-dihydrothieno[2,3-d]pyrimidine-6-carboxylate]
[1]
  AUClast: 495 ng·h/mL
  Cmax: 78.4 ng/mL
  Tmax: 3.50 h
[4]
  Stability: Drying under vaccum @50 for 36 hrs: changes
[5]
  Hygroscopicity: DVS weight gain: 6.4%
